Experimental data reported in patent US8802702B2, “Compounds for reducing drug resistance and uses thereof” (The General Hospital Corporation, priority 2009, dated 2014).
“Also recorded” adds a separate entry of the source. Where two headings read alike, the source gives them in different places.

Tests used:
[1] = tested on: SKOV-3TR cells; test: Reversal of drug resistance, cytotoxicity (MTT) assay in SKOV-3TR; assay type: cell-based; conditions: for IC50: Homo sapiens, SKOV3TR
Protocol: FIGS. 1 (a-b) are graphs that depict the effects of NSC23925 on drug sensitivity in ovarian cancer cells; 1(a) depicts the effects of NSC23925 on sensitive (SKOV-3) and resistant (SKOV-3TR) cells; 1(b) depicts the effects of NSC23925 on sensitive (OVCAR8) and resistant (OVCAR8TR) cells. […] The relative sensitivity of each line to paclitaxel was determined by MTT assay, as described below in the Examples section, 6 days post treatment. […]
Drug cytotoxicity was assessed in vitro using the MTT assay. SKOV-3 and SKOV-3TR cells were used herein. Briefly, 2×10^3 cells per well were plated in 96-well plates in culture medium (RPMI 1640 supplemented with 10% fetal bovine serum and penicillin/streptomycin) containing increasing concentrations of drug. […] The resulting formazan product was dissolved with acid-isopropanol and the absorbance at a wavelength of 490 nm (A490) was read on a SPECTRAmax® Microplate Spectrophotometer (Molecular Devices, Sunnyvale, Calif.). The absorbance values were normalized by assigning the value of the control line in the medium without drug to 1.0 and the value of the no cell control to 0. Experiments were performed in triplicate.

[2] = tested on: OVCAR8TR cells; test: Reversal of drug resistance, cytotoxicity (MTT) assay in OVCAR8TR; assay type: cell-based, human; conditions: for IC50: Homo sapiens
[3] = tested on: MDR cell lines where MDR1 (Pgp1) is highly expressed; test: Reversal of chemoresistance across panel of MDR cell lines with various anti-cancer agents
Protocol: Screening conditions in drug resistant cells were optimized in 96-well plates for optimal growth conditions, small molecular compound and drug concentration and assay times prior to screening. On day 1, drug resistant cells were seeded at 2×10^4 cells/well on 96-well plates and labeled with plates A, B, and incubated for 24 hr at 37° C. On day 2, plate A was treated with a test compound at 1 μM to each well without paclitaxel; Plate B was treated with both a test compound and paclitaxe at specifically prescribed concentrations. From day 4 to day 6, fresh medium was replaced with necessity as described above and evaluated for cytotoxicity under the microscope. On Day 6, the number of viable cells was evaluated for cytotoxicity in any wells under the microscope manually and final results were determined via […]96™ AQ One Solution Cell Cytotoxicity Assay (Promega, Madison, Wis.) by a SPECTRAIVIAX.™ Microplate Spectrophotometer (Molecular Devices, Sunnyvale, Calif.).
The general format was designed for screening the small molecular compound library and identifying novel drug resistant inhibitor. These include evaluation of each small molecular compound through a well studied multidrug resistant cell line SKOV-3TR. The experiments were conducted in two control plates (A and B) and one experimental plate (C) to permit plate-to-plate comparisons (FIG. 1). The control plates (plate A and B) were used to evaluate cytotoxicity of paclitaxel and small molecular compound itself, and to exclude compound that were lethal to the cells in the absence of chemotherapy drug. […] because the goal of this study was to identify small molecular compound that can reverse drug resistance and not to determine cell toxicity. […] Small molecular compound that were associated with cell survival in plate A and plate B and death in plate C were identified as “hits” and selected for further study.
Furthermore, other cell lines with non-Pgp1 mediated MDR mechanisms were tested (H69/AR cells that express MRP1, but not Pgp1, and MCF-7 MX cells that express BCRP, but not Pgp1) to evaluate the specificity of NSC23925.

[4] = tested on: OVCAR8TR cells; test: Reversal of drug resistance, cytotoxicity (MTT) assay in OVCAR8TR; assay type: cell-based, human; conditions: Paclitaxel
Protocol: FIGS. 1 (a-b) are graphs that depict the effects of NSC23925 on drug sensitivity in ovarian cancer cells; 1(a) depicts the effects of NSC23925 on sensitive (SKOV-3) and resistant (SKOV-3TR) cells; 1(b) depicts the effects of NSC23925 on sensitive (OVCAR8) and resistant (OVCAR8TR) cells. Cells were treated with the paclitaxel and NSC23925 in RPMI1640 complete media at the indicated concentrations. The relative sensitivity of each line to paclitaxel was determined by MTT assay, as described below in the Examples section, 6 days post treatment. A: Reversal of paclitaxel resistance by NSC23925 in SKOV-3TR cells. B: Reversal of paclitaxel resistance by NSC23925 in OVCAR8TR cells.
Drug cytotoxicity was assessed in vitro using the MTT assay. SKOV-3 and SKOV-3TR cells were used herein. Briefly, 2×10^3 cells per well were plated in 96-well plates in culture medium (RPMI 1640 supplemented with 10% fetal bovine serum and penicillin/streptomycin) containing increasing concentrations of drug. After 7 days of culture, 10 μl MTT (5 mg/ml in PBS, obtained from Sigma) were added to each well and the plates were incubated for 4 h. The resulting formazan product was dissolved with acid-isopropanol and the absorbance at a wavelength of 490 nm (A490) was read on a SPECTRAmax® Microplate Spectrophotometer (Molecular Devices, Sunnyvale, Calif.). The absorbance values were normalized by assigning the value of the control line in the medium without drug to 1.0 and the value of the no cell control to 0. Experiments were performed in triplicate.

[5] = Doxorubicin, add NSC23925 0.1 μM
[6] = Doxorubicin, add NSC23925 0.5 μM
[7] = Paclitaxel, add NSC23925 0.1 μM
[8] = value = anti-cancer drug used in conjunction

SMILES: COc1ccc(-c2cc(C(O)C3CCCCN3)c3ccccc3n2)cc1 (centres unmarked) [NSC23925, (2-(4-methoxyphenyl)quinolin-4-yl)(piperidin-2-yl)methanol]
- fold-reversal of drug resistance, SKOV-3TR [1, 5]: (1.4) fold
- fold-reversal of drug resistance, SKOV-3TR [1, 6]: (3.3) fold
- fold-reversal of drug resistance, SKOV-3TR ([1]; Doxorubicin, add NSC23925 1 μM): (11.5) fold
- fold-reversal of drug resistance, SKOV-3TR ([1]; ET-743, add NSC23925 0.1 μM): (0.8) fold
- fold-reversal of drug resistance, SKOV-3TR ([1]; ET-743, add NSC23925 0.5 μM): (1) fold
- fold-reversal of drug resistance, SKOV-3TR ([1]; ET-743, add NSC23925 1 μM): (1) fold
- IC50 ([1]; Doxorubicin, add NSC23925 0.1 μM, read-out: SKOV-3TR IC50 of Doxorubicin): 16500 ± 210 nM
- IC50 ([1]; Doxorubicin, add NSC23925 0.5 μM, read-out: SKOV-3TR IC50 of Doxorubicin): 6780 ± 160 nM
- IC50 ([1]; Doxorubicin, add NSC23925 1 μM, read-out: SKOV-3TR IC50 of Doxorubicin): 1940 ± 220 nM
- IC50 ([1]; ET-743, add NSC23925 0.1 μM, read-out: SKOV-3TR IC50 of ET-743): 5 ± 2 nM
- IC50 ([1]; ET-743, add NSC23925 0.5 μM, read-out: SKOV-3TR IC50 of ET-743): 4 ± 1 nM
- IC50 ([1]; ET-743, add NSC23925 1 μM, read-out: SKOV-3TR IC50 of ET-743): 4 ± 1 nM
- IC50 ([1]; PM00104, add NSC23925 0.1 μM, read-out: SKOV-3TR IC50 of PM00104): 5 ± 2 nM
- IC50 ([1]; PM00104, add NSC23925 0.5 μM, read-out: SKOV-3TR IC50 of PM00104): 7 ± 1 nM
- IC50 ([1]; PM00104, add NSC23925 1 μM, read-out: SKOV-3TR IC50 of PM00104): 5 ± 2 nM
- IC50 ([1]; Paclitaxel, add NSC23925 0.1 μM, read-out: SKOV-3TR IC50 of Paclitaxel): 302 ± 56 nM
- IC50 ([1]; Paclitaxel, add NSC23925 0.5 μM, read-out: SKOV-3TR IC50 of Paclitaxel): 132 ± 47 nM
- IC50 ([1]; Paclitaxel, add NSC23925 1 μM, read-out: SKOV-3TR IC50 of Paclitaxel): 37 ± 28 nM
- fold-reversal of drug resistance, SKOV-3TR ([1]; PM00104, add NSC23925 0.1 μM): (1.2) fold
- fold-reversal of drug resistance, SKOV-3TR ([1]; PM00104, add NSC23925 0.5 μM): (0.9^ fold
- fold-reversal of drug resistance, SKOV-3TR ([1]; PM00104, add NSC23925 1 μM): (1.2) fold
- fold-reversal of drug resistance, SKOV-3TR [1, 7]: (1.03) fold
- fold-reversal of drug resistance, SKOV-3TR ([1]; Paclitaxel, add NSC23925 0.5 μM): (2.4) fold
- fold-reversal of drug resistance, SKOV-3TR ([1]; Paclitaxel, add NSC23925 1 μM): (8.4) fold
- fold-reversal of drug resistance, OVCAR8TR [2, 5]: (2.3) fold
- fold-reversal of drug resistance, OVCAR8TR [2, 6]: (5.3) fold
- fold-reversal of drug resistance, OVCAR8TR ([2]; Doxorubicin, add NSC23925 1 μM): (23) fold
- fold-reversal of drug resistance, OVCAR8TR ([2]; ET-743, add NSC23925 0.1 μM): (1.2) fold
- fold-reversal of drug resistance, OVCAR8TR ([2]; ET-743, add NSC23925 0.5 μM): (1.2) fold
- fold-reversal of drug resistance, OVCAR8TR ([2]; ET-743, add NSC23925 1 μM): (0.9) fold
- IC50 ([2]; Doxorubicin, add NSC23925 0.1 μM, read-out: OVCAR8TR IC50 of Doxorubicin): 12400 ± 360 nM
- IC50 ([2]; Doxorubicin, add NSC23925 0.5 μM, read-out: OVCAR8TR IC50 of Doxorubicin): 5200 ± 471 nM
- IC50 ([2]; Doxorubicin, add NSC23925 1 μM, read-out: OVCAR8TR IC50 of Doxorubicin): 1220 ± 122 nM
- IC50 ([2]; ET-743, add NSC23925 0.1 μM, read-out: OVCAR8TR IC50 of ET-743): 5 ± 1 nM
- IC50 ([2]; ET-743, add NSC23925 0.5 μM, read-out: OVCAR8TR IC50 of ET-743): 5 ± 1 nM
- IC50 ([2]; ET-743, add NSC23925 1 μM, read-out: OVCAR8TR IC50 of ET-743): 7 ± 2 nM
- IC50 ([2]; PM00104, add NSC23925 0.1 μM, read-out: OVCAR8TR IC50 of PM00104): 8 ± 2 nM
- IC50 ([2]; PM00104, add NSC23925 0.5 μM, read-out: OVCAR8TR IC50 of PM00104): 6 ± 2 nM
- IC50 ([2]; PM00104, add NSC23925 1 μM, read-out: OVCAR8TR IC50 of PM00104): 5 ± 2 nM
- IC50 ([2]; Paclitaxel, add NSC23925 0.5 μM, read-out: OVCAR8TR IC50 of Paclitaxel): 72 ± 46 nM
- IC50 ([2]; Paclitaxel, add NSC23925 1 μM, read-out: OVCAR8TR IC50 of Paclitaxel): 28 ± 47 nM
- fold-reversal of drug resistance, OVCAR8TR ([2]; PM00104, add NSC23925 0.1 μM): (1) fold
- fold-reversal of drug resistance, OVCAR8TR ([2]; PM00104, add NSC23925 0.5 μM): (1.3) fold
- fold-reversal of drug resistance, OVCAR8TR ([2]; PM00104, add NSC23925 1 μM): (1.6) fold
- fold-reversal of drug resistance, OVCAR8TR [2, 7]: (2.7) fold
- fold-reversal of drug resistance, OVCAR8TR ([2]; Paclitaxel, add NSC23925 1 μM): (12.1) fold
- Reversal of chemoresistance in tumor types where MDR1 is highly expressed ([3]; SKOV-3TR, OVCAR8TR, MCF-7TR, MESSA/Dx5, KHOS R2, U-2OSDR): reverses chemoresistance
- Effect on cytotoxicity of cisplatin and methotrexate ([3]; agents unaffected by MDR1 mechanisms): did not alter the cytotoxicity
- Reverse Drug Resistance by NSC23925: Decreased drug resistance (to the anti-cancer drug named in the cell) [3, 8]: Vincristine; also recorded: Gemcitabine; also recorded: ET-743; also recorded: PM00104; also recorded: Paclitaxel; also recorded: Docetaxel; also recorded: Doxorubicin; also recorded: Daunorubicin
- Reverse Drug Resistance by NSC23925: No effect (on the anti-cancer drug named in the cell) [3, 8]: Cisplatin; also recorded: Carboplatin; also recorded: Topotecan; also recorded: Methotrexate
- Reversal of chemoresistance in conjunction with anti-cancer agents ([3]; with paclitaxel, docetaxel, doxorubicin, daunorubicin, gemcitabine, vincristine, ET-743 or PM00104): significant reversal of chemoresistance
- IC50 ([4]; Homo sapiens, add NSC23925 0.1 μM, read-out: OVCAR8TR IC50 of Paclitaxel): 127 ± 27 nM
- fold-reversal of drug resistance, OVCAR8TR ([4]; add NSC23925 0.5 μM): (4.7) fold
